Source: patent US12497405B2, “Bicyclic heterocycle compounds methods of use thereof for the treatment of herpes viruses” (Merck Sharp & Dohme LLC, priority 2019, dated 2025)

Each molecule was assayed on HSV2 (assay: Viral qPCR assay, HSV2). Conditions: Human alphaherpesvirus 2, 72 h, infected cells, viral genome copies by qPCR normalized to PPIA, read-out: HSV2 Cell EC50.
Assay type: cell-based
In short: (§1)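 MRC5, Vero or MeWo cells were infected in suspension and added to compounds in a 10-point, 3-fold dilution series, then incubated ~72 hrs at 37° C. Lysates were proteinase K-treated, and viral genome copies were quantified by TaqMan qPCR against a plasmid standard curve and normalized to PPIA. EC50 came from a 4-parameter fit.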

| Structure (SMILES) | EC50 [nM] |
| --- | --- |
| CCc1nc2cc(-c3cnco3)c(O[C@H]3CCN4C(=O)OC[C@@H]4C3)cc2c(=O)n1Cc1ccc(C#N)cc1 [Example 65] | 18 |
| Cc1nc2cc(-c3cnn(C(F)F)c3)c(O[C@H]3CCN4C(=O)OC[C@@H]4C3)cc2c(=O)n1Cc1ccc(C#N)cc1F [Example 64] | 51 |
| COc1nc2ccc(O[C@H]3CCN4C(=O)OC[C@@H]4C3)cc2c(=O)n1Cc1ccc(Cl)cc1 [Example 58] | 1140 |
| Cc1nc2cc(-c3cnco3)c(O[C@H]3CCN4C(=O)OC[C@@H]4C3)cc2c(=O)n1Cc1ccc(Cl)cc1 [Example 51] | 16 |
| Cc1nc2cc(-c3cn4c(n3)CN(C)CC4)c(O[C@H]3CCN4C(=O)OC[C@@H]4C3)cc2c(=O)n1Cc1ccc(Cl)cc1 [Example 79] | 123 |
| Cc1nc2cc(-c3cccnc3)c(O[C@H]3CCN4C(=O)OC[C@@H]4C3)cc2c(=O)n1Cc1ccc(Cl)cc1 [Example 54] | 173 |
| CC(C)(O)Cc1cc2ccn(Cc3ccc(Cl)cc3)c(=O)c2cc1O[C@H]1CCN2C(=O)OC[C@@H]2C1 [Example 34] | 81 |

Each molecule was assayed against varicella zoster virus DNA polymerase (Varicella-zoster virus (strain Dumas) (HHV-3) (Human herpesvirus 3), UniProt P09252) (assay: VZV polymerase assay (AlphaLISA)). Conditions: VZV polymerase 0.4 nM, 30 min pre-incubation, 60 minute at 37° C.
Assay type: biochemical
Description: (§2) Human cytomegalovirus and varicella zoster virus DNA polymerases were expressed via baculovirus vector in SF21 cells and purified. Heterodimeric nucleic acid substrate used in the herpesvirus polymerase reactions were generated by annealing a 59-mer template to a 17-mer digoxigenin-labeled primer. Polymerase (HCMV final concentration of 0.2 nM; VZV final concentration of 0.4 nM) was combined with an inhibitor compound or DMSO in assay buffer (10 mM HEPES, pH 7.5, 25 mM KCl, 25 mM NaCl, 5 mM MgCl2, 5% glycerol, 0.67 mg/ml bovine serum albumin, and 1 mM tris(2-carboxyethyl)phosphine)), and this mixture was pre-incubated for 30 minutes at room temperature in 384-well microtiter plates. The polymerization reaction was initiated by the addition of template/primer substrate (final concentration: 1.6 nM), and dNTPs (final concentration: 24 nM dCTP, 24 nMdGTP, 16 nM dATP, 16 nM dTTP, and 0.8 nM biotin-dUTP). After a 60 minute incubation period at 37° C., the reactions were terminated using quench buffer (25 mM HEPES pH 7.5, 100 mM NaCl, 0.25% Tween-20, 12 mM EDTA, and 1 mg/ml bovine serum albumin). Incorporation of biotinylated UTP was detected with 2.5-5 μg/mL anti-DIG AlphaLISA acceptor beads and 5-10 μg/mL streptavidin AlphaLISA donor beads (PerkinElmer). Compound effects were normalized to the window defined by the controls (DMSO only and pre-quenched wells), and were fit using a 4-parameter algorithm to report an IC50.

| Structure (SMILES) | IC50 [nM] |
| --- | --- |
| CCc1nc2cc(-c3cnco3)c(O[C@H]3CCN4C(=O)OC[C@@H]4C3)cc2c(=O)n1Cc1ccc(C#N)cc1 [Example 65] | 0.68 |
| Cc1nc2cc(-c3cnn(C(F)F)c3)c(O[C@H]3CCN4C(=O)OC[C@@H]4C3)cc2c(=O)n1Cc1ccc(C#N)cc1F [Example 64] | 8.9 |
| COc1nc2ccc(O[C@H]3CCN4C(=O)OC[C@@H]4C3)cc2c(=O)n1Cc1ccc(Cl)cc1 [Example 58] | 47 |
| Cc1nc2cc(-c3cnco3)c(O[C@H]3CCN4C(=O)OC[C@@H]4C3)cc2c(=O)n1Cc1ccc(Cl)cc1 [Example 51] | 0.44 |
| Cc1nc2cc(-c3cn4c(n3)CN(C)CC4)c(O[C@H]3CCN4C(=O)OC[C@@H]4C3)cc2c(=O)n1Cc1ccc(Cl)cc1 [Example 79] | 5.5 |
| Cc1nc2cc(-c3cccnc3)c(O[C@H]3CCN4C(=O)OC[C@@H]4C3)cc2c(=O)n1Cc1ccc(Cl)cc1 [Example 54] | 28 |
| CC(C)(O)Cc1cc2ccn(Cc3ccc(Cl)cc3)c(=O)c2cc1O[C@H]1CCN2C(=O)OC[C@@H]2C1 [Example 34] | 1.4 |

These molecules were tested against Human cytomegalovirus DNA polymerase (Human cytomegalovirus (strain AD169) (HHV-5) (Human herpesvirus 5), UniProt P08546) (assay: CMV polymerase assay (AlphaLISA)). Conditions: HCMV polymerase 0.2 nM, 30 min pre-incubation, 60 minute at 37° C.
Assay type: biochemical
Description: as §2

| Structure (SMILES) | IC50 [nM] |
| --- | --- |
| CCc1nc2cc(-c3cnco3)c(O[C@H]3CCN4C(=O)OC[C@@H]4C3)cc2c(=O)n1Cc1ccc(C#N)cc1 [Example 65] | 1.2 |
| Cc1nc2cc(-c3cnn(C(F)F)c3)c(O[C@H]3CCN4C(=O)OC[C@@H]4C3)cc2c(=O)n1Cc1ccc(C#N)cc1F [Example 64] | 2.5 |
| COc1nc2ccc(O[C@H]3CCN4C(=O)OC[C@@H]4C3)cc2c(=O)n1Cc1ccc(Cl)cc1 [Example 58] | 23 |
| Cc1nc2cc(-c3cnco3)c(O[C@H]3CCN4C(=O)OC[C@@H]4C3)cc2c(=O)n1Cc1ccc(Cl)cc1 [Example 51] | 0.22 |
| Cc1nc2cc(-c3cn4c(n3)CN(C)CC4)c(O[C@H]3CCN4C(=O)OC[C@@H]4C3)cc2c(=O)n1Cc1ccc(Cl)cc1 [Example 79] | 4.9 |
| Cc1nc2cc(-c3cccnc3)c(O[C@H]3CCN4C(=O)OC[C@@H]4C3)cc2c(=O)n1Cc1ccc(Cl)cc1 [Example 54] | 23 |
| CC(C)(O)Cc1cc2ccn(Cc3ccc(Cl)cc3)c(=O)c2cc1O[C@H]1CCN2C(=O)OC[C@@H]2C1 [Example 34] | 2.1 |

These molecules were tested on CMV (assay: Viral qPCR assay, CMV). Conditions: Human betaherpesvirus 5, 72 h, infected cells, viral genome copies by qPCR normalized to PPIA, read-out: CMV Cell EC50.
Assay type: cell-based
In short: as §1

| Structure (SMILES) | EC50 [nM] |
| --- | --- |
| CCc1nc2cc(-c3cnco3)c(O[C@H]3CCN4C(=O)OC[C@@H]4C3)cc2c(=O)n1Cc1ccc(C#N)cc1 [Example 65] | 28 |
| Cc1nc2cc(-c3cnn(C(F)F)c3)c(O[C@H]3CCN4C(=O)OC[C@@H]4C3)cc2c(=O)n1Cc1ccc(C#N)cc1F [Example 64] | 64 |
| COc1nc2ccc(O[C@H]3CCN4C(=O)OC[C@@H]4C3)cc2c(=O)n1Cc1ccc(Cl)cc1 [Example 58] | 173 |
| Cc1nc2cc(-c3cnco3)c(O[C@H]3CCN4C(=O)OC[C@@H]4C3)cc2c(=O)n1Cc1ccc(Cl)cc1 [Example 51] | 21 |
| Cc1nc2cc(-c3cn4c(n3)CN(C)CC4)c(O[C@H]3CCN4C(=O)OC[C@@H]4C3)cc2c(=O)n1Cc1ccc(Cl)cc1 [Example 79] | 147 |
| Cc1nc2cc(-c3cccnc3)c(O[C@H]3CCN4C(=O)OC[C@@H]4C3)cc2c(=O)n1Cc1ccc(Cl)cc1 [Example 54] | 82 |
| CC(C)(O)Cc1cc2ccn(Cc3ccc(Cl)cc3)c(=O)c2cc1O[C@H]1CCN2C(=O)OC[C@@H]2C1 [Example 34] | 74 |

These molecules were tested on HSV1 (assay: Viral qPCR assay, HSV1). Conditions: Human alphaherpesvirus 1, 72 h, infected cells, viral genome copies by qPCR normalized to PPIA, read-out: HSV1 Cell EC50.
Assay type: cell-based
In short: as §1

| Structure (SMILES) | EC50 [nM] |
| --- | --- |
| CCc1nc2cc(-c3cnco3)c(O[C@H]3CCN4C(=O)OC[C@@H]4C3)cc2c(=O)n1Cc1ccc(C#N)cc1 [Example 65] | 46 |
| Cc1nc2cc(-c3cnn(C(F)F)c3)c(O[C@H]3CCN4C(=O)OC[C@@H]4C3)cc2c(=O)n1Cc1ccc(C#N)cc1F [Example 64] | 71 |
| COc1nc2ccc(O[C@H]3CCN4C(=O)OC[C@@H]4C3)cc2c(=O)n1Cc1ccc(Cl)cc1 [Example 58] | 996 |
| Cc1nc2cc(-c3cnco3)c(O[C@H]3CCN4C(=O)OC[C@@H]4C3)cc2c(=O)n1Cc1ccc(Cl)cc1 [Example 51] | 26 |
| Cc1nc2cc(-c3cn4c(n3)CN(C)CC4)c(O[C@H]3CCN4C(=O)OC[C@@H]4C3)cc2c(=O)n1Cc1ccc(Cl)cc1 [Example 79] | 111 |
| Cc1nc2cc(-c3cccnc3)c(O[C@H]3CCN4C(=O)OC[C@@H]4C3)cc2c(=O)n1Cc1ccc(Cl)cc1 [Example 54] | 238 |
| CC(C)(O)Cc1cc2ccn(Cc3ccc(Cl)cc3)c(=O)c2cc1O[C@H]1CCN2C(=O)OC[C@@H]2C1 [Example 34] | 110 |
